Patent US20060263453A1, “Methods and compositions for modulating glutamate dehydrogenase” (priority 2004, published 2006)

System: 'antenna-less' form of human GDH
Experiment: kinetic analysis of 'antenna-less' human GDH
Assay type: biochemical
Conditions: FIG. 4
Experimental: First, aliquots of GDH were extensively dialyzed against 0.1M sodium phosphate buffer, pH 7.0, which contained 1 mM ethylenediaminetetraacetic acid (EDTA). The enzyme concentrations were adjusted to 1 mg/ml and the amount of enzyme added to the reaction mixture, for kinetic analysis, was adjusted to yield optimal steady state velocity measurements. All solutions were made immediately prior to use. Enzyme assays were performed by monitoring reduced coenzyme absorbance at 340 nm using a Shimadzu UV-1601 spectrophotometer. The reductive amination reactions were performed in 3 mL volumes at pH 7.0 in the presence of 0.1 mM nicotinamide adenine dinucleotide (NADH), 50 mM NH4Cl, and 5 mM 2-oxoglutarate. The rate of NADH oxidation was calculated using an extinction coefficient of 6.22 mM^−1 cm^−1.
To this end, EGCG was tested against five different HI/HA mutant forms of GDH, namely, R265K, R269C, E296A, S448P, and H454Y. In addition, EGCG was tested against human wild type GDH (“WT”), GDH from Tetrahymena thermophilia (“tGDH”) that, like the HI/HA mutant GDH enzymes, is not regulated by GTP, and a human GDH that was missing a certain 48 residue ‘antenna-like’ feature protruding from the top of each of its six subunits that is necessary for ADP, GTP, and Palmitoyl CoA regulation. […]

Compound: O=C(O[C@@H]1Cc2c(O)cc(O)cc2O[C@@H]1c1cc(O)c(O)c(O)c1)c1cc(O)c(O)c(O)c1 [EGCG, (2R,3R)-2-(3,4,5-Trihydroxyphenyl)-3,4-dihydro-1 (2H)-benzopyran-3,5,7-triol 3-(3,4,5-trihydroxybenzoate)]
- inhibition of 'antenna-less' human GDH: did not inhibit
